Measurements reported in patent US20210188856A1, “CRYSTAL FORM OF HYDROCHLORIDE OF PYRAZOLOHETEROARYL DERIVATIVE AND PREPARATION METHOD” (JIANGSU HENGRUI MEDICINE CO., LTD., priority 2018, published 2021).

How the values were obtained:
human TLR7 = target: T1, human TLR7 (Homo sapiens, UniProt Q9NYK1); assay: Agonistic effect on human TLR7 (HEK-Blue hTLR7 cells); assay type: cell-based
T1 construct: host or cells: HEK-Blue hTLR7 (HEK293-derived) stably transfected cells
T1 sequence (Q9NYK1 27-1049): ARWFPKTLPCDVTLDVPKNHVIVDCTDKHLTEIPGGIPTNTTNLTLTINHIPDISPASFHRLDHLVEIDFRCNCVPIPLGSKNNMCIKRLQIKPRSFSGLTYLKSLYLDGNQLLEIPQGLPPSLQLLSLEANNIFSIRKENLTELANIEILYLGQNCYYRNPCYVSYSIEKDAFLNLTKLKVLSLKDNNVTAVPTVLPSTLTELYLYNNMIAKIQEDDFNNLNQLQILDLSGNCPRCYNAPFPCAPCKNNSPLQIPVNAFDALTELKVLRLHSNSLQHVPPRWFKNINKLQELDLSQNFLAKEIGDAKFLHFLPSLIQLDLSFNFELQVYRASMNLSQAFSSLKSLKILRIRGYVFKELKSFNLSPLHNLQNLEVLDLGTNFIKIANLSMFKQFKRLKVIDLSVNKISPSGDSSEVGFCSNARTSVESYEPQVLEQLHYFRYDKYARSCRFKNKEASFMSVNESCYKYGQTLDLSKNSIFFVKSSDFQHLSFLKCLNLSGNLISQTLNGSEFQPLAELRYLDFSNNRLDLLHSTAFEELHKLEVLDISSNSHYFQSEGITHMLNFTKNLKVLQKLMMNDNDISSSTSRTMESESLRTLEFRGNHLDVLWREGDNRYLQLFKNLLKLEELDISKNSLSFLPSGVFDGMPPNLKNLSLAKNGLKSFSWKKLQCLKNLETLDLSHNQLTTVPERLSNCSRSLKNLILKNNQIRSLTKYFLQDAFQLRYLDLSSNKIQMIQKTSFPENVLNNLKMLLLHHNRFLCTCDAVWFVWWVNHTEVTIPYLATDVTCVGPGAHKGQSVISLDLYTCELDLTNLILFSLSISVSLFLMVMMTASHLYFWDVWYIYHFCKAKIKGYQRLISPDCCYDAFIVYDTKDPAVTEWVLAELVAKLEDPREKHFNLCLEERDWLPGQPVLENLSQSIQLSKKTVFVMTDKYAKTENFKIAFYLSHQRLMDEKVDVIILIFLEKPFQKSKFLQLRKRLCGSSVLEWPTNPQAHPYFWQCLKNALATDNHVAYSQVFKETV
Description: The agonistic effect of the compound represented by formula (I) on the hTLR7 protein expressed in HEK-Blue™ hTLR7 stably transfected cells was determined by the following experimental method:
A bag of HEK-Blue detection dry powder was dissolved in 50 mL of water free of endotoxin, and the solution was then placed in an incubator at 37° C. for 10 minutes followed by sterile filtration to prepare a HEK-Blue detection medium. The compound was firstly formulated into a 20 mM stock solution, then diluted with pure DMSO to a maximum concentration of 6×10^6 nM, and a total of 10 points were obtained by a 3-fold gradient dilution.
The above formulated compound was firstly diluted 20-fold with the medium, then 20 μL of the diluted compound was added to each well. The supernatant was removed from the HEK-Blue™ hTLR7 cells, to which 2-5 mL of pre-warmed PBS was then added. The cells were placed in an incubator for 1-2 minutes, gently pipetted, and counted by trypan blue staining. The cells were re-suspended in the HEK-Blue detection medium, and the concentration was adjusted to 2.2×10^5 cells/mL. […]
The plate was read with a microplate reader at a wavelength of 620 nm. The corresponding OD values were obtained, and the EC50 value of the compound was calculated by Graphpad Prism.

[1] = system: peripheral blood mononuclear cells (PBMC); assay: Stimulation of IFN-α secretion from PBMC; assay type: cell-based, human; conditions: 24 hours, lowest concentration giving cytokine level at least 3 times the minimum detection limit
Description: The ability of the compound of the present disclosure to stimulate the secretion of IFN-α from PBMC was determined by the following experimental method:
The compound was diluted with pure DMSO to a maximum concentration of 5 mM, and a total of 9 points were obtained by a 4-fold gradient dilution. 4 μL of the compound was then added to 196 μL of RMPI 1640 medium containing 10% FBS and mixed well. 50 μL of the mixture was taken from each well and added to a new 96-well cell culture plate.
All reagents were equilibrated to room temperature. 60 mL of blood and PBS+2% FBS were added to a 250 mL culture flask, gently pipetted, mixed well and diluted. 15 mL of lymphocyte separation solution Ficoll-Paque PREMIUM and then 30 mL of diluted blood were added to a 50 mL PBMC centrifuge tube SepMate™-50. The mixture was centrifuged at 1200 g for 10 minutes at room temperature. The supernatant was taken and then centrifuged at 300 g for 8 minutes. The cells were re-suspended in the RMPI 1640 medium containing 10% FBS and counted, and the number of PBMCs was adjusted to 3.33×10^6 cells/mL. 150 μL of the cell solution was added to the plate added with the compound, and incubated in an incubator at 37° C., 5.0% CO2 for 24 hours.
The cell culture plate was placed in a centrifuge, and centrifuged at 1200 rpm for 10 minutes at room temperature. […]
The plate was read with PHERAStar in the HTRF mode. […]

Log D = assay type: physicochemical

CCCCOc1nc(N)c2cnn(Cc3ccc(CN4CCCC4)cc3)c2n1 [compound represented by formula (I), 6-Butoxy-1-(4-(pyrrolidin-1-ylmethyl)benzyl)-1H-pyrazolo[3,4-d]pyrimidin-4-amine]
agonistic effect on human TLR7 (in words) (human TLR7; HEK-Blue hTLR7 cells): significant agonistic effect | EC50 (human TLR7; HEK-Blue hTLR7 stably transfected cells): 0.028 µM | MEC (minimal effective concentration), IFN-α secretion from PBMC [1]: 6 nM | Log D (Log D): 1.21
